Assay results from patent publication US20250249012A1, “COMPOSITIONS AND METHODS FOR TREATING AND/OR PREVENTING A VIRAL INFECTION” (priority 2022, published 2025).
Where a name gives a salt, the structure may show the parent alone.

Tested on: SARS-CoV-2 beta variant
Assay: […]; lung PCR and histopathology
Assay type: in vivo, BALB C mice

Row | Compound | antiviral effect upon sole administration (Apilimod dimesylate alone) | antiviral effect of single drug (mouse, in vivo) | antiviral effect upon sole administration (Nafamostat mesylate alone) | reduction of infection (PCR) by single drug (mouse, in vivo)
1 | N-[(E)-(3-methylphenyl)methylidencamino]-6-morpholin-4-yl-2-(2-pyridin-2-ylethoxy)pyrimidin-4-amine [Apilimod dimesylate] | lack of antiviral effect | no antiviral effect | – | –
2 | N=C(N)c1ccc2cc(OC(=O)c3ccc(N=C(N)N)cc3)ccc2c1 [Nafamostat mesylate] | – | no effect | partial antiviral inhibitory effect | 5-10 fold
